The text below walks through data of ChEMBL document CHEMBL1909046, “DrugMatrix in vitro pharmacology data”.

For data set [1], the target named is Matrix metalloproteinase-9 (Homo sapiens, UniProt P14780). The data set is described as follows: biochemical. The class given is cell-based.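 Further: inhibition of isolated MMP-9 enzyme activity toward a synthetic peptide substrate, from the DrugMatrix protease screening panel; in other assays of this panel Not Active means under 50% inhibition at 10 µM.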
In data set [2] the target is T1, Caspase-1 (Homo sapiens, UniProt P29466).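 Further: Caspase-1 enzyme inhibition assay with a peptide substrate; in other assays of this panel Not Active means under 50% inhibition at 10 µM.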
T1 sequence (P29466 whole entry): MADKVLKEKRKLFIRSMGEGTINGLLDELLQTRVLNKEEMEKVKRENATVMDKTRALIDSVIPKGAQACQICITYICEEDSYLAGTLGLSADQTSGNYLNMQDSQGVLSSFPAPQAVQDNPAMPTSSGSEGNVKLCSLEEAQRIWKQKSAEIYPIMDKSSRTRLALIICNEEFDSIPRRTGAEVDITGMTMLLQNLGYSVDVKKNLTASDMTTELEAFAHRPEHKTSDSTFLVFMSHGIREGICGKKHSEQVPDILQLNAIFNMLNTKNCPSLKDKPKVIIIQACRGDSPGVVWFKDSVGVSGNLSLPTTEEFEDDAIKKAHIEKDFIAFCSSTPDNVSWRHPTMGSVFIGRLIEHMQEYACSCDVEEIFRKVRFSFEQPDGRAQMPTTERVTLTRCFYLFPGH
Also noted: species or system Escherichia coli.

The nature of data set [3]: DRUGMATRIX: Glutamate, NMDA, Agonism radioligand binding (ligand: [3H] CGP-39653). To be noted: Not Active = under 50% inhibition at 10 µM. Format: cell membranes, Rattus norvegicus, Wistar, Cerebral cortex, Membrane.
Data set [4] in a line: DRUGMATRIX: Phosphodiesterase PDE4 enzyme inhibition (substrate: [3H]cAMP + cAMP). The note with it: u-937, Not Active = under 50% inhibition at 10 µM.
A short description of data set [5]: DRUGMATRIX: Phorbol Ester radioligand binding (ligand: [3H] PDBu). The class given is cell membranes, Mus musculus, ICR, Brain, Membrane. The note with it: Not Active = under 50% inhibition at 10 µM.
Data set [6] has as its target T2, Cytochrome P450 1A2 (Homo sapiens, UniProt P05177). Further: in other assays of this panel Not Active means under 50% inhibition at 10 µM.
T2 sequence (P05177 whole entry): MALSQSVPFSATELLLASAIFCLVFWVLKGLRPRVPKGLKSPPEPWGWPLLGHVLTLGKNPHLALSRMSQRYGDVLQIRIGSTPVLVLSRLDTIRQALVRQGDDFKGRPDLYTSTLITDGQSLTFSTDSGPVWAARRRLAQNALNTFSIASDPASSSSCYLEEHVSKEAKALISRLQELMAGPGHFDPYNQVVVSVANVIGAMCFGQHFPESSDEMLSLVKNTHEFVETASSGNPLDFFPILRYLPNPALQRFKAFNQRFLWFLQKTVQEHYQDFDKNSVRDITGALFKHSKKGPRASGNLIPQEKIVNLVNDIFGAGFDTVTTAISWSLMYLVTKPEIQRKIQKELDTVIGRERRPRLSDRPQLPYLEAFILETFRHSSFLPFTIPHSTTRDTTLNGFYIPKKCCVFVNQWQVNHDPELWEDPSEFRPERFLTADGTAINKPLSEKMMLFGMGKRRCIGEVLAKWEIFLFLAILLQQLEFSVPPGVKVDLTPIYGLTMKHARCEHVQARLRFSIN
To be noted: bti-tn-5b1-4.

Data set [7] can be described thus: DRUGMATRIX: Purinergic P2X radioligand binding (ligand: [3H] alpha, beta-Methylene-ATP). To be noted: Not Active = under 50% inhibition at 10 µM. Format: cell membranes, Oryctolagus cuniculus, New Zealand albino, Urinary bladder, Membrane.
Data set [8] is described as follows: DRUGMATRIX: beta-Lactamase enzyme inhibition (substrate: Nitrocefin). Also noted: species or system Bacillus cereus. The note with it: Not Active = under 50% inhibition at 10 µM.

Each structure is given as a SMILES string.

Chain of Matrix metalloproteinase-9 (P14780 whole entry): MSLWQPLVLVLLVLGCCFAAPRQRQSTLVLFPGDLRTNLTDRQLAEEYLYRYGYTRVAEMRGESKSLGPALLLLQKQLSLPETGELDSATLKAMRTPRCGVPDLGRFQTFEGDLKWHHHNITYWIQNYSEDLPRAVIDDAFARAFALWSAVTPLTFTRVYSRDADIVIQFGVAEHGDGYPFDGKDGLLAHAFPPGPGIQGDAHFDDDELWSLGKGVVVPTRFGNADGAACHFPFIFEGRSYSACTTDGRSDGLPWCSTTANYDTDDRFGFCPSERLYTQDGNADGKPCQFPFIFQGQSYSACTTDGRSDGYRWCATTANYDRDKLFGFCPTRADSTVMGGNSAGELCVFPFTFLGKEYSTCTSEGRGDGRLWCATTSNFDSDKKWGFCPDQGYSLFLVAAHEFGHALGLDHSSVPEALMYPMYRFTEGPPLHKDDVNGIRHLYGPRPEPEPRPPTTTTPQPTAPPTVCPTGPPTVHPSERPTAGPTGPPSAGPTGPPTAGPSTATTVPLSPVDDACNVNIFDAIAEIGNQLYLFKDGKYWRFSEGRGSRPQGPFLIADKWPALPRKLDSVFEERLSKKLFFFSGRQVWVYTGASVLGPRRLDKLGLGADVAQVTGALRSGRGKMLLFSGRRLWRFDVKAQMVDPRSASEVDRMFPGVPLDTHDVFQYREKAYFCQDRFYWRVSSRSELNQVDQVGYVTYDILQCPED

For `CN(C(=O)CCCOc1ccc2[nH]c(=O)ccc2c1)C1CCCCC1` [CILOSTAMIDE], the IC50 entry in data set [1], in data set [2], in data set [3], in data set [4], in data set [5] and in data set [6] was “Not Active” throughout. Moreover, the IC50 entry in data set [7] and in data set [8] was “Not Active” in each case. The Ki entry in data set [3], in data set [4], in data set [5], in data set [6], in data set [7] and in data set [8] was “Not Active” in each case.
`Nc1nc(Cl)nc2c1ncn2[C@H]1C[C@H](O)[C@@H](CO)O1` [CLADRIBINE]: the IC50 entry in data set [1] is “Not Active”; in data set [2] it was “Not Active”; in data set [3], “Not Active”; in data set [4] (read-out: IC50), 3620 nM; in data set [5] it was “Not Active”; in data set [6] it was “Not Active”. Also, the IC50 result in data set [7] and in data set [8] was “Not Active” throughout. In addition, the Ki entry in data set [3], in data set [5], in data set [6], in data set [7] and in data set [8] was “Not Active” in each case.
With `CC(=O)O[C@]1(C(C)=O)CC[C@H]2[C@@H]3C=C(Cl)C4=CC(=O)[C@@H]5C[C@@H]5[C@]4(C)[C@H]3CC[C@@]21C` [CYPROTERONE ACETATE], the IC50 result in data set [1], in data set [2], in data set [3], in data set [4], in data set [5] and in data set [6] was “Not Active” throughout. Also, the IC50 entry in data set [7] and in data set [8] was “Not Active” throughout. Besides, the Ki entry in data set [3], in data set [4], in data set [5], in data set [6], in data set [7] and in data set [8] was “Not Active” throughout.
Turning to `Nc1nc(N)nc(NC2CC2)n1` [CYROMAZINE], the IC50 result in data set [1], in data set [2], in data set [3], in data set [4], in data set [5] and in data set [6] was “Not Active” each time. The IC50 result in data set [7] and in data set [8] was “Not Active” throughout. The Ki result in data set [3], in data set [4], in data set [5], in data set [6], in data set [7] and in data set [8] was “Not Active” throughout.
As for `C#C[C@]1(O)CC[C@H]2[C@@H]3CCC4=Cc5oncc5C[C@]4(C)[C@H]3CC[C@@]21C` [DANAZOL], the IC50 result in data set [1], in data set [2], in data set [3], in data set [4], in data set [5] and in data set [6] was “Not Active” each time. For the same compound, the IC50 entry in data set [7] and in data set [8] was “Not Active” in each case. Also, the Ki entry in data set [3], in data set [4], in data set [5], in data set [6], in data set [7] and in data set [8] was “Not Active” throughout.
Take `Cc1c(N(C)CS(=O)(=O)[O-])c(=O)n(-c2ccccc2)n1C.[Na+]` [DIPYRONE SODIUM]: the IC50 entry in data set [1], in data set [2], in data set [3], in data set [4], in data set [5] and in data set [6] was “Not Active” throughout. Further, the IC50 result in data set [7] and in data set [8] was “Not Active” in each case. The Ki entry in data set [3], in data set [4], in data set [5], in data set [6], in data set [7] and in data set [8] was “Not Active” throughout.
On to `C#C[C@]1(O)CC[C@H]2[C@@H]3CCc4cc(O)ccc4[C@H]3CC[C@@]21C` [ETHINYL ESTRADIOL], for which the IC50 entry in data set [1], in data set [2], in data set [3], in data set [4], in data set [5] and in data set [6] was “Not Active” in each case. The IC50 result in data set [7] and in data set [8] was “Not Active” each time. Besides, the Ki result in data set [3], in data set [4], in data set [5], in data set [6], in data set [7] and in data set [8] was “Not Active” throughout.
Turning to `C[C@]12CCC(=O)C=C1CC[C@@H]1[C@@H]2[C@@H](O)C[C@@]2(C)[C@H]1CC[C@]2(O)C(=O)CO` [HYDROCORTISONE], the IC50 entry in data set [1], in data set [2], in data set [3], in data set [4], in data set [5] and in data set [6] was “Not Active” each time. Also, the IC50 entry in data set [7] and in data set [8] was “Not Active” in each case. Further, the Ki entry in data set [3], in data set [4], in data set [5], in data set [6], in data set [7] and in data set [8] was “Not Active” each time.
For `Cc1cccc(Nc2ccccc2C(=O)O)c1C` [MEFENAMIC ACID], the half-inhibitory concentration (IC50) entry in data set [1], in data set [2], in data set [3], in data set [4], in data set [5] and in data set [6] was “Not Active” each time. Moreover, the IC50 result in data set [7] and in data set [8] was “Not Active” throughout. Besides, the Ki entry in data set [3], in data set [4], in data set [5], in data set [6], in data set [7] and in data set [8] was “Not Active” throughout.
With `O=C(O)c1cccnc1` [NIACIN], the IC50 entry in data set [1], in data set [2], in data set [3], in data set [4], in data set [5] and in data set [6] was “Not Active” in each case. Also, the IC50 result in data set [7] and in data set [8] was “Not Active” throughout. Further, the Ki entry in data set [3], in data set [4], in data set [5], in data set [6], in data set [7] and in data set [8] was “Not Active” in each case.
Turning to `CNC(=C[N+](=O)[O-])NCCSCc1csc(CN(C)C)n1` [NIZATIDINE], the IC50 entry in data set [1], in data set [2], in data set [3], in data set [4], in data set [5] and in data set [6] was “Not Active” each time. The IC50 entry in data set [7] and in data set [8] was “Not Active” each time. For the same compound, the Ki entry in data set [3], in data set [4], in data set [5], in data set [6], in data set [7] and in data set [8] was “Not Active” each time.
Take `COc1ccc(Cc2nccc3cc(OC)c(OC)cc23)cc1OC` [PAPAVERINE]: the IC50 result in data set [1] was “Not Active”; in data set [2] it was “Not Active”; in data set [3] it was “Not Active”; in data set [4] (read-out: IC50) it was 817 nM; in data set [5], “Not Active”; in data set [6] it was “Not Active”. Besides, the IC50 entry in data set [7] and in data set [8] was “Not Active” each time. In addition, the Ki entry in data set [3], in data set [5], in data set [6], in data set [7] and in data set [8] was “Not Active” each time.
In the case of `CC(C)(Sc1cc(C(C)(C)C)c(O)c(C(C)(C)C)c1)Sc1cc(C(C)(C)C)c(O)c(C(C)(C)C)c1` [PROBUCOL], the IC50 result in data set [1], in data set [2], in data set [3], in data set [4], in data set [5] and in data set [6] was “Not Active” in each case. Moreover, the IC50 entry in data set [7] and in data set [8] was “Not Active” each time. Moreover, the Ki entry in data set [3], in data set [4], in data set [5], in data set [6], in data set [7] and in data set [8] was “Not Active” each time.
